Measured values from patent US9982007B2, “Cocrystals of progesterone” (AMRI SSCI, LLC, priority 2012, dated 2018).

Experiment: Powder dissolution
Type: physicochemical
Details: compared to commercially available progesterone

dissolution rate: increase in dissolution rate
Substance: progesterone:vanillic acid [Cocrystal 1]
progesterone concentration over time: sustained progesterone concentration over time
